Source: patent US20030162777A1, “Novel N-acylated heterocycles” (Recordati S.A., priority 2001, published 2003)

How the values were obtained:
conscious rats = assay: Effect on cystometric parameters in conscious rats after oral administration; format: in vivo, rat; conditions: 3 mg/kg p.o., 1-5 h after treatment, versus vehicle
Description: Male Sprague-Dawley rats [Crl: CD° (SD) BR] of 300-400 g supplied by Charles River Italia were used. The animals were housed with free access to food and water and maintained on a forced 12-hour-light/12-hour-dark cycle at 22-24° C. of temperature, except during the experiment. To quantify urodynamic parameters in conscious rats, cystometrographic studies were performed according to the procedure previously reported (Guarneri et al., Pharmacol. Res. 24: 175, 1991).
Briefly, the rats were anaesthetised by intraperitoneal administration of 3 ml/kg of Equithensin solution (pentobarbital 30 mg/kg and chloral hydrate 125 mg/kg) and placed in a supine position. An approximately-10-mm-long midline incision was made in the shaved and cleaned abdominal wall. The urinary bladder was gently freed from adhering tissues, emptied and then cannulated via an incision in the bladder body, using a polyethylene cannula (0.58-mm internal diameter, 0.96-mm external diameter) which was permanently sutured with silk thread. The cannula was exteriorised through a subcutaneous tunnel in the retroscapular area, where it was connected to a plastic adapter in order to avoid the risk of removal by the animal. For drug testing, the rats were utilised one day after implantation.
On the day of the experiment, the rats were placed in modified Bollman cages, i.e. restraining cages that were large enough to permit the rats to adopt a normal crouched posture, but narrow enough to prevent turning around. […] The intraluminal-pressure signal during infusion of saline into the bladder was continuously recorded on a polygraph (Rectigraph-8K San-ei with BM614/2 amplifier from Biomedica Mangoni) and, from the cystometrogram, two urodynamic parameters were evaluated: bladder volume capacity (BVC) and micturition pressure (MP). […] Basal BVC and MP values were evaluated as mean of the values observed in the cystometrograms recorded in an initial period of 30-60 minutes. […] The bladder infusion restarted and changes in BVC and MP were evaluated from the mean values obtained in the cystometrograms observed during 1, 2, 3, 4 and 5 hours after treatment. […]
All data were expressed as mean±standard error. Time-course data were analysed by S.A.S./STAT software, version 6.12. The difference between vehicle and active-treatment effect was evaluated by: General Linear Model Procedure—Repeated Measures Analysis of Variance: Univariate test of Hypotheses for within Subject Effects—Analysis of Variance of Contrast Variables. […]

anaesthetised rats = assay: Effects on rhythmic bladder-voiding contractions induced by bladder filling in anaesthetised rats; format: in vivo, rat; conditions: intravenous administration, urethane-anaesthetised rats
Description: Female Sprague-Dawley rats weighing 225-275 g (Crl: CDo Br, Charles River Italia) were used. The animals were housed with free access to food and water and maintained on a forced 12-hour alternating light-dark cycle at 22-24° C. for at least one week, except during the experiment. The activity on rhythmic bladder voiding contractions was evaluated according to the method of Dray (Dray J., Pharmacol. Methods, 13:157, 1985), with some modifications as in Guarneri (Guarneri, Pharmacol. Res. 27:173, 1993). Briefly, the rats were anaesthetised by subcutaneous injection of 1.25 g/kg (5 ml/kg) urethane, after which the urinary bladder was catheterised via the urethra using PE 50 polyethylene tubing filled with physiological saline. The catheter was tied in place with a ligature around the external urethral orifice and was connected to conventional pressure transducers (Statham P23 ID/P23 XL). […] The bladder was then filled via the recording catheter by incremental volumes of warm (37° C.) saline until reflex bladder-voiding contractions occurred (usually 0.8-1.5 ml). For intravenous injection of bioactive compounds, PE 50 polyethylene tubing filled with physiological saline was inserted into the jugular vein.
From the cystometrogram, the number of contractions recorded 15 minutes before (basal values) and after treatment, as well as the mean amplitude of these contractions (mean height of the peaks in mmHg), was evaluated.
Since most compounds produced an effect that was relatively rapid in onset and led to a complete cessation of bladder contractions, bioactivity was conveniently estimated by measuring the duration of bladder quiescence (i.e. the length of the time during which no contractions occurred). The number of tested animals showing a reduction in the number of contractions higher than 30% of that observed in the basal period was recorded too.
The extrapolated doses which induced a reduction in the number of contractions greater than 30% in 50% of the treated rats (ED50) were evaluated by the method of Bliss (Bliss C. I., Quart J. Pharm. Pharmacol. 11, 192-216, 1938).

`O=C(C1CCCCC1)N1c2ccccc2CCC1CN1CCN(c2cccc3[nH]ccc23)CC1` (racemic) [Example 1, (±)1-(1-cyclohexanecarbonyl-1,2,3,4-tetrahydroquinoline-2-ylmethyl)-4-(4-indolyl)piperazine] was tested, and the “effect on bladder volume capacity (BVC)” value (conscious rats) was “effective in increasing the bladder volume capacity”, the “effect on micturition pressure (MP)” value (conscious rats) was “without significant effects” and the ED50 (anaesthetised rats; Rattus norvegicus, read-out: ED50 frequency (extrapolated dose inducing a reduction of the number of contractions >30% in 50% of treated rats)) was 0.064 mg/kg. For the same compound, the “ED10 min (extrapolated dose inducing 10 minutes of disappearance of the contractions)” value (anaesthetised rats) was 0.107 mg/kg.
